{"source": "patent US20250313572A1", "about": "“MACROCYCLIC MCL-1 INHIBITORS AND METHODS OF USE” (AbbVie Inc., priority 2017, published 2025)", "key": {"[1]": {"test_system": "NCI-H929 human multiple myeloma tumor cell line", "assay": "NCI-H929 cell viability assay (CellTiter-Glo, 24 hours)", "format": "cell-based", "conditions": "Homo sapiens, NCI-H929, 24 h, read-out: H929 Viability IC50 (μM, 10% FBS), 10% FBS, 24 hours of compound treatment"}, "[2]": {"test_system": "AMO-1 human multiple myeloma tumor cell line", "assay": "AMO-1 cell viability assay (CellTiter-Glo, 24 hours)", "format": "cell-based", "conditions": "Homo sapiens, AMO1, 24 h, read-out: AMO-1 Viability IC50 (μM, 10% FBS), 10% FBS, 24 hours of compound treatment"}, "GST-MCL-1": {"target": "GST-MCL-1 (Homo sapiens, UniProt Q07820)", "sequence (Q07820 whole entry)": "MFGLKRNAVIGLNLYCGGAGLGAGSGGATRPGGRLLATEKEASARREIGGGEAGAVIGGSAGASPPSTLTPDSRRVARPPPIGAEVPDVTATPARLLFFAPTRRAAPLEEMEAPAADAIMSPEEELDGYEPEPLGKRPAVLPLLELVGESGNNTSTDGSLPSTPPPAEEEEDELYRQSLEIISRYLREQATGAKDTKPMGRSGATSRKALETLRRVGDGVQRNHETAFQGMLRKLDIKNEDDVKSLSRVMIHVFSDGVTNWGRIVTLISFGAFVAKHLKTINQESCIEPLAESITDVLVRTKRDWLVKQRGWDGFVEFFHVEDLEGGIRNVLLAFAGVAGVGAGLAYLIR", "assay": "TR-FRET MCL-1 binding assay (competition with probe F-Bak)", "summary_of_the_method": "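Displacement of F-Bak from GST-MCL-1 is detected by time-resolved FRET with a Tb-labelled anti-GST antibody, with excitation 340/35 nm and emission 520/525 and 495/510 nm, after 2 hours at room temperature. Compounds were titrated in 11 three-fold steps starting at 25 μM final, in buffer alone or in 10% HS.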"}, "[3]": {"conditions": "MCL-1 Binding Ki (nM, 10% HS), in the presence of 10% HS (human serum)"}, "[4]": {"conditions": "without HS, read-out: MCL-1 Binding Ki"}}, "note": "Like-named read-outs stand apart in the source and are kept apart here.", "data": [{"compound": "COCCOCCOCCOCc1ccc(-c2nccc(COc3ccc4cc3C[C@H](C(=O)O)Oc3ncnc5sc(-c6ccc(F)cc6)c(c35)-c3c(C)c(Cl)c(c(Cl)c3C)O[C@H](CN3CCN(C)CC3)CO4)n2)c(OCCOCCOCCOC)c1", "note": "[Example 153, (7R,16R)-19,23-dichloro-1-(4-fluorophenyl)-10-({2-[2-{2-[2-(2-methoxyethoxy)ethoxy]ethoxy}-4-(2,5,8,11-tetraoxadodecan-1-yl)phenyl]pyrimidin-4-yl}methoxy)-20,22-dimethyl-16-[(4-methylpiperazin-1-yl)methyl]-7,8,15,16-tetrahydro-18,21-etheno-13,9-(metheno)-6,14,17-trioxa-2-thia-3,5-diazacyclononadeca[1,2,3-cd]indene-7-carboxylic Acid]", "values": [{"measurement": "IC50", "setting": "[1]", "result": 0.00688, "unit": "µM"}, {"measurement": "IC50", "setting": "[2]", "result": 0.00728, "unit": "µM"}, {"measurement": "Ki", "setting": "GST-MCL-1; [3]", "result": 0.023, "unit": "nM"}, {"measurement": "Ki", "setting": "GST-MCL-1; [4]", "result": 0.001, "unit": "nM"}]}, {"compound": "CO[C@@H]1CO[C@H]2[C@@H]1OC[C@H]2OCCOc1ccc(-c2nccc(COc3ccc4cc3C[C@H](C(=O)O)Oc3ncnc5sc(-c6ccc(F)cc6)c(c35)-c3c(C)c(Cl)c(c(Cl)c3C)O[C@H](CN3CCN(C)CC3)CO4)n2)cc1", "note": "[Example 154, (7R,16R)-19,23-dichloro-1-(4-fluorophenyl)-10-({2-[4-(2-{[(3R,3aR,6R,6aR)-6-methoxyhexahydrofuro[3,2-b]furan-3-yl]oxy}ethoxy)phenyl]pyrimidin-4-yl}methoxy)-20,22-dimethyl-16-[(4-methylpiperazin-1-yl)methyl]-7,8,15,16-tetrahydro-18,21-etheno-13,9-(metheno)-6,14,17-trioxa-2-thia-3,5-diazacyclononadeca[1,2,3-cd]indene-7-carboxylic Acid]", "values": [{"measurement": "IC50", "setting": "[1]", "result": 0.000643, "unit": "µM"}, {"measurement": "IC50", "setting": "[2]", "result": 0.000698, "unit": "µM"}, {"measurement": "Ki", "setting": "GST-MCL-1; [3]", "result": 0.191, "unit": "nM"}, {"measurement": "Ki", "setting": "GST-MCL-1; [4]", "result": 0.018, "unit": "nM"}]}, {"compound": "COCCOCCOCCOCc1cc(OC[C@H]2COCCO2)ccc1-c1nccc(COc2ccc3cc2C[C@H](C(=O)O)Oc2ncnc4sc(-c5ccc(F)cc5)c(c24)-c2c(C)c(Cl)c(c(Cl)c2C)O[C@H](CN2CCN(C)CC2)CO3)n1", "note": "[Example 155, (7R,16R)-19,23-dichloro-10-({2-[4-{[(2R)-1,4-dioxan-2-yl]methoxy}-2-(2,5,8,11-tetraoxadodecan-1-yl)phenyl]pyrimidin-4-yl}methoxy)-1-(4-fluorophenyl)-20,22-dimethyl-16-[(4-methylpiperazin-1-yl)methyl]-7,8,15,16-tetrahydro-18,21-etheno-13,9-(metheno)-6,14,17-trioxa-2-thia-3,5-diazacyclononadeca[1,2,3-cd]indene-7-carboxylic Acid]", "values": [{"measurement": "IC50", "setting": "[1]", "result": 0.000187, "unit": "µM"}, {"measurement": "IC50", "setting": "[2]", "result": 0.000188, "unit": "µM"}, {"measurement": "Ki", "setting": "GST-MCL-1; [3]", "result": 0.03, "unit": "nM"}, {"measurement": "Ki", "setting": "GST-MCL-1; [4]", "result": 0.001, "unit": "nM"}]}, {"compound": "COCCOCCOCCOc1cccc(COc2ccc3cc2C[C@H](C(=O)O)Oc2ncnc4sc(-c5ccc(F)cc5)c(c24)-c2c(C)c(Cl)c(c(Cl)c2C)O[C@H](CN2CCN(C)CC2)CO3)c1", "note": "[Example 156, (7R,16R)-19,23-dichloro-1-(4-fluorophenyl)-10-[(3-{2-[2-(2-methoxyethoxy)ethoxy]ethoxy}phenyl)methoxy]-20,22-dimethyl-16-[(4-methylpiperazin-1-yl)methyl]-7,8,15,16-tetrahydro-18,21-etheno-13,9-(metheno)-6,14,17-trioxa-2-thia-3,5-diazacyclononadeca[1,2,3-cd]indene-7-carboxylic Acid]", "values": [{"measurement": "IC50", "setting": "[1]", "result": 0.0111, "unit": "µM"}, {"measurement": "IC50", "setting": "[2]", "result": 0.00453, "unit": "µM"}, {"measurement": "Ki", "setting": "GST-MCL-1; [3]", "result": 23.6, "unit": "nM"}, {"measurement": "Ki", "setting": "GST-MCL-1; [4]", "result": 1.88, "unit": "nM"}]}, {"compound": "Cc1c(Cl)c2c(Cl)c(C)c1-c1c(-c3ccc(F)cc3)sc3ncnc(c13)O[C@@H](C(=O)O)Cc1cc(ccc1OCc1ccnc(-c3ccc(OC[C@@H]4CN(C)CCO4)cc3)n1)OC[C@@H](CN1CCN(C)CC1)O2", "note": "[Example 157, (7R,16R)-19,23-dichloro-1-(4-fluorophenyl)-20,22-dimethyl-10-{[2-(4-{[(2S)-4-methylmorpholin-2-yl]methoxy}phenyl)pyrimidin-4-yl]methoxy}-16-[(4-methylpiperazin-1-yl)methyl]-7,8,15,16-tetrahydro-18,21-etheno-9,13-(metheno)-6,14,17-trioxa-2-thia-3,5-diazacyclononadeca[1,2,3-cd]indene-7-carboxylic Acid]", "values": [{"measurement": "IC50", "setting": "[1]", "result": 0.000821, "unit": "µM"}, {"measurement": "IC50", "setting": "[2]", "result": 0.000233, "unit": "µM"}, {"measurement": "Ki", "setting": "GST-MCL-1; [3]", "result": 0.168, "unit": "nM"}, {"measurement": "Ki", "setting": "GST-MCL-1; [4]", "result": 0.008, "unit": "nM"}]}, {"compound": "Cc1c(Cl)c2c(Cl)c(C)c1-c1c(-c3ccc(F)cc3)sc3ncnc(c13)O[C@@H](C(=O)O)Cc1cc(ccc1OCc1ccnc(-c3ccc(OC[C@H]4CN(C)CCO4)cc3)n1)OC[C@@H](CN1CCN(C)CC1)O2", "note": "[Example 158, (7R,16R)-19,23-dichloro-1-(4-fluorophenyl)-20,22-dimethyl-10-{[2-(4-{[(2R)-4-methylmorpholin-2-yl]methoxy}phenyl)pyrimidin-4-yl]methoxy}-16-[(4-methylpiperazin-1-yl)methyl]-7,8,15,16-tetrahydro-18,21-etheno-9,13-(metheno)-6,14,17-trioxa-2-thia-3,5-diazacyclononadeca[1,2,3-cd]indene-7-carboxylic Acid]", "values": [{"measurement": "IC50", "setting": "[1]", "result": 0.00131, "unit": "µM"}, {"measurement": "IC50", "setting": "[2]", "result": 0.000258, "unit": "µM"}, {"measurement": "Ki", "setting": "GST-MCL-1; [3]", "result": 0.41, "unit": "nM"}, {"measurement": "Ki", "setting": "GST-MCL-1; [4]", "result": 0.003, "unit": "nM"}]}, {"compound": "CO[C@@H]1CO[C@H]2[C@@H]1OC[C@H]2OCCOCCOc1ccc(-c2nccc(COc3ccc4cc3C[C@H](C(=O)O)Oc3ncnc5sc(-c6ccc(F)cc6)c(c35)-c3c(C)c(Cl)c(c(Cl)c3C)O[C@H](CN3CCN(C)CC3)CO4)n2)cc1", "note": "[Example 159, (7R,16R)-19,23-dichloro-1-(4-fluorophenyl)-10-[(2-{4-[2-(2-{[(3R,3aR,6R,6aR)-6-methoxyhexahydrofuro[3,2-b]furan-3-yl]oxy}ethoxy)ethoxy]phenyl}pyrimidin-4-yl)methoxy]-20,22-dimethyl-16-[(4-methylpiperazin-1-yl)methyl]-7,8,15,16-tetrahydro-18,21-etheno-13,9-(metheno)-6,14,17-trioxa-2-thia-3,5-diazacyclononadeca[1,2,3-cd]indene-7-carboxylic Acid]", "values": [{"measurement": "IC50", "setting": "[1]", "result": 0.000379, "unit": "µM"}, {"measurement": "IC50", "setting": "[2]", "result": 0.000296, "unit": "µM"}, {"measurement": "Ki", "setting": "GST-MCL-1; [3]", "result": 0.087, "unit": "nM"}, {"measurement": "Ki", "setting": "GST-MCL-1; [4]", "result": 0.008, "unit": "nM"}]}, {"compound": "COCCOCCOC[C@H]1CC[C@H](c2nccc(COc3ccc4cc3C[C@H](C(=O)O)Oc3ncnc5sc(-c6ccc(F)cc6)c(c35)-c3c(C)c(Cl)c(c(Cl)c3C)O[C@H](CN3CCN(C)CC3)CO4)n2)CC1", "note": "[Example 160, (7R,16R)-19,23-dichloro-1-(4-fluorophenyl)-10-({2-[(1r,4r)-4-{[2-(2-methoxyethoxy)ethoxy]methyl}cyclohexyl]pyrimidin-4-yl}methoxy)-20,22-dimethyl-16-[(4-methylpiperazin-1-yl)methyl]-7,8,15,16-tetrahydro-18,21-etheno-13,9-(metheno)-6,14,17-trioxa-2-thia-3,5-diazacyclononadeca[1,2,3-cd]indene-7-carboxylic Acid]", "values": [{"measurement": "IC50", "setting": "[1]", "result": 0.000206, "unit": "µM"}, {"measurement": "IC50", "setting": "[2]", "result": 0.000116, "unit": "µM"}, {"measurement": "Ki", "setting": "GST-MCL-1; [3]", "result": 0.083, "unit": "nM"}, {"measurement": "Ki", "setting": "GST-MCL-1; [4]", "result": 0.005, "unit": "nM"}]}, {"compound": "Cc1c(Cl)c2c(Cl)c(C)c1-c1c(-c3ccc(F)cc3)sc3ncnc(c13)O[C@@H](C(=O)O)Cc1cc(ccc1OCc1ccnc(-c3ccc(O[C@H]4CO[C@H]5[C@@H]4OC[C@H]5O)cc3)n1)OC[C@@H](CN1CCN(C)CC1)O2", "note": "[Example 161, (7R,16R)-19,23-dichloro-1-(4-fluorophenyl)-10-{[2-(4-{[(3S,3aR,6R,6aR)-6-hydroxyhexahydrofuro[3,2-b]furan-3-yl]oxy}phenyl)pyrimidin-4-yl]methoxy}-20,22-dimethyl-16-[(4-methylpiperazin-1-yl)methyl]-7,8,15,16-tetrahydro-18,21-etheno-13,9-(metheno)-6,14,17-trioxa-2-thia-3,5-diazacyclononadeca[1,2,3-cd]indene-7-carboxylic Acid]", "values": [{"measurement": "IC50", "setting": "[1]", "result": 0.000502, "unit": "µM"}, {"measurement": "IC50", "setting": "[2]", "result": 0.000262, "unit": "µM"}, {"measurement": "Ki", "setting": "GST-MCL-1; [3]", "result": 0.141, "unit": "nM"}, {"measurement": "Ki", "setting": "GST-MCL-1; [4]", "result": 0.002, "unit": "nM"}]}, {"compound": "COCCOCCOCCOc1ccc(COc2ccc3cc2C[C@H](C(=O)O)Oc2ncnc4sc(-c5ccc(F)cc5)c(c24)-c2c(C)c(Cl)c(c(Cl)c2C)O[C@H](CN2CCN(C)CC2)CO3)nc1", "note": "[Example 162, (7R,16R)-19,23-dichloro-1-(4-fluorophenyl)-10-[(5-{2-[2-(2-methoxyethoxy)ethoxy]ethoxy}pyridin-2-yl)methoxy]-20,22-dimethyl-16-[(4-methylpiperazin-1-yl)methyl]-7,8,15,16-tetrahydro-18,21-etheno-13,9-(metheno)-6,14,17-trioxa-2-thia-3,5-diazacyclononadeca[1,2,3-cd]indene-7-carboxylic Acid]", "values": [{"measurement": "IC50", "setting": "[1]", "result": 0.0143, "unit": "µM"}, {"measurement": "IC50", "setting": "[2]", "result": 0.012, "unit": "µM"}, {"measurement": "Ki", "setting": "GST-MCL-1; [3]", "result": 0.934, "unit": "nM"}, {"measurement": "Ki", "setting": "GST-MCL-1; [4]", "result": 0.159, "unit": "nM"}]}, {"compound": "Cc1c(Cl)c2c(Cl)c(C)c1-c1c(-c3ccc(F)cc3)sc3ncnc(c13)O[C@@H](C(=O)O)Cc1cc(ccc1OCc1ccnc(-c3ccc(OC[C@H]4COCCN4C)cc3)n1)OC[C@@H](CN1CCN(C)CC1)O2", "note": "[Example 163, (7R,16R)-19,23-dichloro-1-(4-fluorophenyl)-20,22-dimethyl-10-{[2-(4-{[(3R)-4-methylmorpholin-3-yl]methoxy}phenyl)pyrimidin-4-yl]methoxy}-16-[(4-methylpiperazin-1-yl)methyl]-7,8,15,16-tetrahydro-18,21-etheno-9,13-(metheno)-6,14,17-trioxa-2-thia-3,5-diazacyclononadeca[1,2,3-cd]indene-7-carboxylic Acid]", "values": [{"measurement": "IC50", "setting": "[1]", "result": 0.00134, "unit": "µM"}, {"measurement": "IC50", "setting": "[2]", "result": 0.000399, "unit": "µM"}, {"measurement": "Ki", "setting": "GST-MCL-1; [3]", "result": 0.285, "unit": "nM"}, {"measurement": "Ki", "setting": "GST-MCL-1; [4]", "result": 0.013, "unit": "nM"}]}]}
